Experimental data published in ChEMBL document CHEMBL5365434, “Cyclic Diguanylate G-Quadruplex Inducer-Nitric Oxide Donor Conjugate as a Bifunctional Antibiofilm Agent and Antibacterial Synergist against Pseudomonas aeruginosa with a Hyperbiofilm Phenotype” (J Med Chem, 2023).
Calls of active or inactive are those of the source. The rule behind the calls is not given here.

Assays:
Quadruplex DNA = experiment: Induction of c-diGMP G quadruplex formation at 30 uM incubated for 12 hrs by circular dichroism analysis; type: nucleic-acid assay
Pseudomonas aeruginosa [1] = experiment: Antibiofilm activity against Pseudomonas aeruginosa PAO1 delta wspF at 1.25 uM measured after 24 hrs by crystal violet staining based analysis; type: functional, organism-based
Pseudomonas aeruginosa [2] = experiment: Synergistic antibacterial activity against Pseudomonas aeruginosa PAO1 delta wspF assessed as inhibition of reproduction of biofilm bacteria at 2X MBC in presence of streptozocin by checker board assay; type: functional, organism-based
Caenorhabditis elegans [3] = experiment: Anti-infective activity against Caenorhabditis elegans assessed as survival rate at MBC level incubated for 24 hrs relative to control; type: functional
DNA = experiment: Induction of pBR322 DNA (unknown origin) damage assessed as DNA embedding effect by measuring tail formation incubated for 10 mins by electrophoresis assay; type: toxicity
Caenorhabditis elegans [4] = experiment: Synergistic anti-infective activity against Caenorhabditis elegans assessed as survival rate at 0.16 to 20 uM incubated for 24 hrs in presence of tobramycin relative to control; type: functional; details: dose 0.16-20 µM
Pseudomonas aeruginosa [5] = experiment: Antibacterial activity against Pseudomonas aeruginosa PAO1 delta wspF assessed as eradication of mature biofilm at 0.16 to 40 uM incubated for 15 hrs by crystal violet staining based analysis relative to control; type: functional; details: dose 0.16-40 µM
Pseudomonas aeruginosa [6] = experiment: Antibiofilm activity against Pseudomonas aeruginosa PAO1 delta wspF assessed as increase in number of planktonic bacteria at 1.25 to 10 uM incubated for 2 hrs; type: functional, organism-based; details: dose 1.25-10 µM
Pseudomonas aeruginosa [7] = experiment: Antibacterial activity against Pseudomonas aeruginosa PAO1 delta wspF assessed as eradication of preformed bacterial biofilm at 1.25 uM incubated for 15 hrs by crystal violet staining based analysis relative to control; type: functional
[8] = Cytotoxicity against African green monkey Vero cells assessed as survival rate at 0.156 to 20 uM measured after 48 hrs by MTT assay relative to control; type: toxicity, cell-based; details: chlorocebus sabaeus, dose 0.156-20 µM, read-out: Survival
Caenorhabditis elegans [9] = experiment: Synergistic anti-infective activity against Caenorhabditis elegans assessed as survival rate at 10 uM incubated for 24 hrs in presence of tobramycin relative to control; type: functional
Pseudomonas aeruginosa [10] = experiment: Synergistic antibacterial activity against Pseudomonas aeruginosa PAO1 delta wspF assessed as inhibition of reproduction of biofilm bacteria at high concentration incubated for 15 hrs in presence of tobramycin by checker board assay; type: functional, organism-based
Pseudomonas aeruginosa [11] = experiment: Synergistic antibacterial activity Pseudomonas aeruginosa PAO1 delta wspF assessed as fold reduction in survival of biofilm bacteria at 1.25 to 10 uM incubated for 15 hrs in presence of tobramycin by checker board assay; type: functional; details: dose 1.25-10 µM
Pseudomonas aeruginosa [12] = experiment: Antibacterial activity against Pseudomonas aeruginosa PAO1 delta wspF assessed as inhibition of biofilm formation at 1.25 uM incubated for 24 hrs relative to control; type: functional; parameters: scale not given: the % may be the effect or the level left
Pseudomonas aeruginosa [13] = experiment: Synergistic antibacterial activity against Pseudomonas aeruginosa PAO1 delta wspF assessed as inhibition of reproduction of biofilm bacteria at upto 40 uM incubated for 15 hrs in presence of tobramycin by checker board assay; type: functional, organism-based
Pseudomonas aeruginosa [14] = experiment: Antibacterial activity against Pseudomonas aeruginosa PAO1 delta wspF assessed as reduction in c-di-GMP induced EMP production at 0.156 to 1.25 uM incubated for 3 hrs by Congo red dye based spectrophotometric assay; type: functional, organism-based; details: dose 0.156-1.25 µM
Pseudomonas aeruginosa [15] = experiment: Antibacterial activity against Pseudomonas aeruginosa PAO1 delta wspF assessed as eradication of preformed bacterial biofilm at 0.625 to 40 uM incubated for 15 hrs by crystal violet staining based analysis; type: functional, organism-based; details: dose 0.625-40 µM
Pseudomonas aeruginosa [16] = experiment: Anti-motility activity against Pseudomonas aeruginosa PAO1 delta wspF assessed as promotion of swarming motility measured after 24 hrs; type: functional, organism-based; details: dose 0.156-1.25 µM
Vero = experiment: Cytotoxicity against African green monkey Vero cells at 0.156 to 20 uM measured after 24 hrs by MTT assay relative to control; type: toxicity, cell-based; details: chlorocebus sabaeus, dose 0.156-20 µM
Pseudomonas aeruginosa [17] = experiment: Antibacterial activity against Pseudomonas aeruginosa PAO1 delta wspF assessed as reduction in c-di-GMP induced EMP production at 1.25 uM incubated for 3 hrs by Congo red dye based spectrophotometric assay relative to control; type: functional; parameters: scale not given: the % may be the effect or the level left

## CCNc1ccc(/C=C/c2ccc3ccccc3[n+]2C)cc1
Quadruplex DNA
  Activity: Active
Pseudomonas aeruginosa [1]
  Activity: Active

## CN1/C(=C/c2cc[n+](C)c3ccccc23)Sc2ccccc21.Cc1ccc(S(=O)(=O)[O-])cc1
Pseudomonas aeruginosa [2]
  Activity: Active
Caenorhabditis elegans [3]
  Activity: 20%
DNA
  Activity: Active

## CNc1ccc(/C=C/c2sc3ccccc3[n+]2C)cc1
Quadruplex DNA
  Activity: Active
Pseudomonas aeruginosa [1]
  Activity: Active

## CCCNc1ccc(/C=C/c2sc3ccccc3[n+]2C)cc1
Quadruplex DNA
  Activity: Active
Pseudomonas aeruginosa [1]
  Activity: Active

## CN(N=O)C(=O)N[C@@H](C=O)[C@@H](O)[C@H](O)[C@H](O)CO [STREPTOZOCIN]
Caenorhabditis elegans [4]
  Activity: 25%
Pseudomonas aeruginosa [5]
  Activity: 30%

## CC(C)Nc1ccc(/C=C/c2sc3ccccc3[n+]2C)cc1
Quadruplex DNA
  Activity: Active
Pseudomonas aeruginosa [1]
  Activity: Active

## COc1cc(/C=C/c2sc3ccccc3[n+]2C)ccc1N(C)N=O.[I-]
Pseudomonas aeruginosa [6]
  Activity: Active
Pseudomonas aeruginosa [7]
  Activity: 40%
[8]
  viability at 48 h, up to 20 µM: 80%
Caenorhabditis elegans [9]
  Activity: 60%
Pseudomonas aeruginosa [10]
  Activity: Active
Pseudomonas aeruginosa [11]
  fold change (FC): 1000
Pseudomonas aeruginosa [12]
  Activity: 80%

## CNc1ccc(/C=C/c2sc3ccccc3[n+]2C)cc1OC.[I-]
Pseudomonas aeruginosa [13]
  Activity: inactive
Pseudomonas aeruginosa [14]
  Activity: Active
Pseudomonas aeruginosa [15]
  Activity: inactive
Pseudomonas aeruginosa [16]
  Activity: Dose-Dependent Effect
DNA
  Activity: Not Active
Quadruplex DNA
  Activity: Active
Vero
  Activity: > 98%
Pseudomonas aeruginosa [17]
  Activity: <50%
Pseudomonas aeruginosa [1]
  Activity: Active
Pseudomonas aeruginosa [12]
  Activity: 60%

## CCNc1ccc(/C=C/c2sc3ccccc3[n+]2C)cc1
Quadruplex DNA
  Activity: Active
Pseudomonas aeruginosa [1]
  Activity: Active

## CCCNc1ccc(/C=C/c2ccc3ccccc3[n+]2C)cc1
Quadruplex DNA
  Activity: Active
Pseudomonas aeruginosa [1]
  Activity: Active

## CNc1ccc(/C=C/c2ccc3ccccc3[n+]2C)cc1
Quadruplex DNA
  Activity: Active
Pseudomonas aeruginosa [1]
  Activity: Active
